Data from ChEMBL document CHEMBL4043084, “Indole Alkaloids from Hunteria zeylanica” (J Nat Prod, 2017).
Activity calls are given as the source filed them. The calls are words filed in the database; no cut-off is given here.

What was measured:
Rhodobium porosum = experiment: Insecticidal activity against Rhodobium porosum adults placed on 5 secs compound pre-treated bean leaves after 1 day by leaf dipping protocol based method; assay type: functional
SGC-7901 = experiment: Cytotoxicity against human SGC7901 cells assessed as reduction in cell viability at 0.0624 to 40 uM incubated for 48 hrs by MTT assay; assay type: functional, cell-based
A549 = experiment: Cytotoxicity against human A549 cells assessed as reduction in cell viability at 0.0624 to 40 uM incubated for 48 hrs by MTT assay; assay type: functional, cell-based
HeLa = experiment: Cytotoxicity against human HeLa cells assessed as reduction in cell viability at 0.0624 to 40 uM incubated for 48 hrs by MTT assay; assay type: functional, cell-based

C/C=C1\CN2CCc3c([nH]c4ccccc34)[C@@H]2C[C@@H]1CCO
LC50 (Rhodobium porosum): 360 µM
Activity (SGC-7901): inactive
Activity (A549): inactive
Activity (HeLa): inactive

C=C[C@H]1CN2CCc3c([nH]c4ccc(O)c([C@H]5C[C@@H]6/C(=C\C)CN(C)[C@@H](Cc7c5[nH]c5ccccc75)[C@@]6(CO)C(=O)OC)c34)[C@@H]2C[C@@H]1CCO
Activity (SGC-7901): inactive
Activity (A549): inactive
Activity (HeLa): inactive

C/C=C1/CN(C)[C@H]2Cc3c([nH]c4ccccc34)[C@@H](c3cc4[nH]c5c(c4cc3O)CCN3C[C@H](CC)[C@@H](CCO)C[C@@H]53)C[C@H]1[C@]2(CO)C(=O)OC
Activity (SGC-7901): inactive
Activity (A549): inactive
Activity (HeLa): inactive

C/C=C1/CN2CC[C@@]34CN5c6c(cccc6[C@@]67CC[N+]8([O-])CCC[C@@]9(CC[C@@]56[C@H]9C)[C@@H]78)[C@@]35[C@@H]2CC1[C@@H](C(=O)OC)N5c1ccccc14 (some centres not stated)
Activity (SGC-7901): inactive
Activity (A549): inactive
Activity (HeLa): inactive

C/C=C1/CN2CCc3c4n(c5ccccc35)[C@H](C(=O)OC)[C@@H]1C[C@@H]42
Activity (SGC-7901): inactive
Activity (A549): inactive
Activity (HeLa): inactive

C/C=C1\C[N+]2(C)CCc3c([nH]c4ccc(O)cc34)[C@@H]2C[C@@H]1CCO (some centres not stated)
Activity (SGC-7901): inactive
Activity (A549): inactive
Activity (HeLa): inactive

C/C=C1/C[N@@+](C)([O-])[C@H]2Cc3c4n(c5ccccc35)C35[C@@H]6C[C@H]7/C(=C\C)CN6CCC3(c3ccccc3N5[C@@H]7C(=O)O)[C@H]4CC1[C@H]2C(=O)OC (some centres not stated)
Activity (SGC-7901): inactive
Activity (A549): inactive
Activity (HeLa): inactive

C/C=C1/C[N@@+]2(C)CCc3c([nH]c4ccc(O)c([C@H]5C[C@H]6[C@@]7(C(=O)OC)CO[C@H](N(C)[C@H]7Cc7c5[nH]c5ccccc75)[C@@]65O[C@H]5C)c34)[C@@H]2C[C@@H]1CCO
Activity (SGC-7901): inactive
Activity (A549): inactive
Activity (HeLa): inactive

C/C=C1/CN2CCc3c([nH]c4ccccc34)[C@@H]2C[C@@H]1[C@H](CO)C(=O)OC
Activity (SGC-7901): inactive
Activity (A549): inactive
Activity (HeLa): inactive

CC[C@@]12CCCN3CCc4c(n(c5ccccc45)[C@H](OC)C1)[C@H]32
Activity (SGC-7901): inactive
Activity (A549): inactive
Activity (HeLa): inactive

C/C=C1/CN2CCc3c([nH]c4ccc(O)c([C@H]5C[C@@H]6/C(=C\C)CN(C)[C@@H](Cc7c5[nH]c5ccccc75)[C@@]6(CO)C(=O)OC)c34)[C@@H]2C[C@@H]1CCO
Activity (SGC-7901): inactive
Activity (A549): inactive
Activity (HeLa): inactive

C/C=C1/C[N@+]2(C)CCc3c([nH]c4ccccc34)C[C@H]1CC2
Activity (SGC-7901): inactive
Activity (A549): inactive
Activity (HeLa): inactive

C/C=C1/CN2CC[C@@]34CN5c6c(cccc6[C@@]67CCN8CCC[C@@]9(CC[C@@]56[C@H]9C)[C@H]87)[C@@]35[C@@H]2CC1[C@@H](C(=O)OC)N5c1ccccc14
Activity (SGC-7901): inactive
Activity (A549): inactive
Activity (HeLa): inactive

CC[C@@]12CCCN3CCc4c(n(c5ccccc45)[C@@H](OC)C1)[C@H]32
Activity (SGC-7901): inactive
Activity (A549): inactive
Activity (HeLa): inactive

CC[C@]12CCCN3CC[C@]4(C(=C(C(=O)OC)C1)Nc1ccccc14)[C@@H]32
Activity (SGC-7901): inactive
Activity (A549): inactive
Activity (HeLa): inactive

O[C@@H]1CC[C@H]2CN3CCc4c([nH]c5ccccc45)[C@@H]3C[C@@H]2C1
Activity (SGC-7901): inactive
Activity (A549): inactive
Activity (HeLa): inactive

CC[C@H]1CN2CCc3c([nH]c4ccccc34)[C@@H]2C[C@@H]1CCO
LC50 (Rhodobium porosum): 291 µM
Activity (SGC-7901): inactive
Activity (A549): inactive
Activity (HeLa): inactive

CC[C@@H]1[C@H]2C[C@@H]3c4[nH]c5ccc(OC)cc5c4[C@@H](C(=O)[C@H]2CO)[C@@H]1N3C
Activity (SGC-7901): inactive
Activity (A549): inactive
Activity (HeLa): inactive

O[C@H]1CC[C@H]2CN3CCc4c([nH]c5ccccc45)[C@@H]3C[C@@H]2C1
Activity (SGC-7901): inactive
Activity (A549): inactive
Activity (HeLa): inactive

O=[N+]([O-])/N=C1\NCCN1Cc1ccc(Cl)nc1
LC50 (Rhodobium porosum): 49 µM

C=C[C@H]1CN2CCc3c([nH]c4ccc(O)cc34)[C@@H]2C[C@@H]1CCO
LC50 (Rhodobium porosum): 168 µM
Activity (SGC-7901): inactive
Activity (A549): inactive
Activity (HeLa): inactive

C/C=C1/C[N@@+]2(C)CCc3c([nH]c4ccc(O)c([C@H]5C[C@@H]6/C(=C\C)CN(C)[C@@H](Cc7c5[nH]c5ccccc75)[C@@]6(CO)C(=O)OC)c34)[C@@H]2C[C@@H]1CCO
Activity (SGC-7901): inactive
Activity (A549): inactive
Activity (HeLa): inactive
